# Marks after values point to notes of the source that are not given here.
# Columns and labels:
# Assay type in all cases: in vivo
# Kunming mice [1] = experiment: Influence on autonomic activity of normal mice (ZIL-2 mice autonomic activity meter, counts within 10 min); settings: intragastric, x ± s; for Times of activities in 1 h after drug administration/10 min: 1 h after administration; for Times of activities in 2 h after drug administration/10 min: 2 h after administration; for Times of activities in 24 h after drug administration/10 min: 24 h after administration
# From the text: (§1) 1.1 Animals for experiments: Kunming mice, weighting 18.9˜22.2 g for females, and 20.2˜23.0 g for males, licensed under SCXK-(Ji) 2007-0003, and provided by The experimental animal centre, Jilin University.
# (§2) 1.2 Chemicals for experiments: The flavone derivatives provided in Examples 1-41 and the flavanone derivatives provided in Examples 42-71 are all formulated with 0.5% sodium carboxymethyl cellulose as solutions with required concentrations.
# (§3) 1.3 Grouping of animals: 6420 animals are employed in the entire experiments and 2140 of the animals are randomly divided into 214 groups by gender, and the […] include: control group, low dosage group for each experimental drugs (25 mg/kg), medium dosage group for each experimental drugs (50 mg/kg), and high dosage group for each experimental drugs (100 mg/kg). Each group has 10 animals and either female or male constitutes half of the group. The groups are used in behavior observation and voluntary action observation. The other 4280 animals are randomly divided into 214 groups by gender respectively (the grouping way is the same with that described above). Each group has 20 animals and either female or male constitutes half of the group. In each group, 10 animals are used in hypnosis experimentations with pentobarbital sodium doses below the threshold, and the other 10 animals are used hypnosis experimentations with pentobarbital sodium doses at the threshold.
# 1.4 Experimental instrument and agents: ZIL-2 mice autonomic activity meter, production of Institute of Materia Medica of Chinese Academy of Medical Sciences; pentobarbital sodium, Lot: 100808, 25 g/bottle, Beijing Chemical Reagent Company equipment imported from Germany.
# 1.5.2 Influence on Autonomic Activity of Normal Mice
# After observing the general behavior, in 1 h, 2 h and 24 h after drug administration, respectively, ZIL-2 mice autonomic activity meter is put respectively. Number of autonomic activities of each group of mice is measured within 10 min. Results among groups are compared.
# (§4) Number of autonomic activities is detected by leneve Test for homogeneity of variance. If the homogeneity of variance is good (P>0.05), statistical analysis is performed with ANOVA. If ANOVA have statistical significance (P≦0.05), Dunnett's test for multiple comparisons analysis is performed. Number of animals of sleeping mice is applied of ANOVA. Incidence rate of animal asleep is applied of χ2 test. Sleep latency and sleep duration are recorded in min, averaged by group, represented by standard deviation, and undergo statistical analysis using ANOVA.
# Kunming mice [2] = experiment: Influence on hypnosis effect with pentobarbital sodium doses below the threshold (25 mg/kg i.p.); settings: pentobarbital sodium 25 mg/kg i.p. 60 min later, sleep observed in 30 min, n = 10
# From the text: as §1, §2, §3
# 1.5.3 Influence on Hypnosis Effect with Mice Pentobarbital Sodium Doses Below the Threshold
# (§5) The drug is intragastric administered in mice for single time, 2 animals of each group are given drug per round with the dosing interval of 40 min (±5 min). According to the administration round, in 60 min (±5 min) of each round after the drug administration, the animals were intraperitoneally injected 0.3% sodium pentobarbital 25 mg/kg, respectively. Sleep condition of the animals were observed within 30 min (under sleep determination standard of loss of righting reflex more than 1 min). After animals undergo loss of righting reflex, number of the animals is recorded, to calculate sleep percentage.
# as §4
# Kunming mice [3] = experiment: Influence on hypnosis effect with pentobarbital sodium doses at the threshold (50 mg/kg i.p.); settings: pentobarbital sodium 50 mg/kg i.p. 60 min later, x ± s, n = 10
# From the text: as §1, §2, §3
# 1.5.4 Influence on Hypnosis Effect with Mice Pentobarbital Sodium Doses at the Threshold
# as §5, with “50” for “25”, “Time to fall asleep (sleep latency) and sleep duration” for “Sleep condition”, “recorded” for “observed”, “under” for “30 min (under”, “min.” for “min). After animals undergo loss of righting reflex, number of the animals is recorded, to calculate sleep percentage.”
# as §4
# [4] = test drug 25 mg/kg intragastric single dose
# [5] = test drug 50 mg/kg intragastric single dose
# [6] = test drug 100 mg/kg intragastric single dose
# [7] = 25 mg/kg intragastric single dose
# [8] = 50 mg/kg intragastric single dose
# [9] = 100 mg/kg intragastric single dose
SMILES,"Times of activities in 1 h after drug administration/10 min (Kunming mice [1]; 25 mg/kg, n = 10)","Times of activities in 2 h after drug administration/10 min (Kunming mice [1]; 25 mg/kg, n = 10)","Times of activities in 24 h after drug administration/10 min (Kunming mice [1]; 25 mg/kg, n = 10)","Times of activities in 1 h after drug administration/10 min (Kunming mice [1]; 50 mg/kg, n = 10)","Times of activities in 2 h after drug administration/10 min (Kunming mice [1]; 50 mg/kg, n = 10)","Times of activities in 24 h after drug administration/10 min (Kunming mice [1]; 50 mg/kg, n = 10)","Times of activities in 1 h after drug administration/10 min (Kunming mice [1]; 100 mg/kg, n = 10)","Times of activities in 2 h after drug administration/10 min (Kunming mice [1]; 100 mg/kg, n = 10)",Number of sleeping animals (Kunming mice [2]; [4]),rate of sleeping (%) (Kunming mice [2]; [4]),Number of sleeping animals (Kunming mice [2]; [5]),rate of sleeping (%) (Kunming mice [2]; [5]),Number of sleeping animals (Kunming mice [2]; [6]),rate of sleeping (%) (Kunming mice [2]; [6]),duration of sleep (Kunming mice [3]; [7]),time to sleep (Kunming mice [3]; [7]),duration of sleep (Kunming mice [3]; [8]),time to sleep (Kunming mice [3]; [8]),duration of sleep (Kunming mice [3]; [9]),time to sleep (Kunming mice [3]; [9]),also measured
COc1ccc(-c2cc(=O)c3cc(OC)c(OC)c(OC)c3o2)cc1OC [Example 27],291.3 ± 52.1 /10 min,282.2 ± 41.5 /10 min,293.6 ± 82.9 /10 min,169.6 ± 51.3 /10 min,193.2 ± 56.4 /10 min,295.7 ± 92.3 /10 min,124.2 ± 39.4 /10 min,138.9 ± 48.9 /10 min,5,50** %,6,60** %,7,70** %,31.32 ± 22.99 min,4.88 ± 1.89 min,60.34 ± 16.90 min,4.15 ± 1.65 min,62.15 ± 33.37 min,3.73 ± 1.47 min,"Times of activities in 24 h after drug administration/10 min (Kunming mice [1]; 100 mg/kg, n = 10): 278.6 ± 92.7 /10 min"
CCCc1cc(C2CC(=O)c3c(cc(O)cc3[N+](=O)[O-])O2)cc(-c2ccccc2)c1C1CCSC1 (stereo not drawn) [Example 51],227.8 ± 75.6 /10 min,231.8 ± 79.8 /10 min,321.6 ± 70.7 /10 min,143.3 ± 64.7 /10 min,130.7 ± 63.2 /10 min,306.3 ± 68.2 /10 min,115.8 ± 34.4 /10 min,108.8 ± 39.4 /10 min,6,60** %,6,60** %,8,80*** %,49.88 ± 19.09 min,4.61 ± 1.74 min,57.61 ± 14.98 min,3.43 ± 1.99 min,82.27 ± 15.68 min,2.71 ± 1.72 min,"Times of activities in 24 h after drug administration/10 min (Kunming mice [1]; 100 mg/kg, n = 10): 300.4 ± 77.5 /10 min"
COc1cc(OC)c2c(=O)cc(-c3ccc(OC)c(OC)c3)oc2c1 [Example 36],,,,,,,,,3,30%,4,40* %,6,60** %,38.32 ± 20.03 min,4.21 ± 1.65 min,61.41 ± 26.54 min,3.77 ± 1.12 min,72.03 ± 21.92 min,3.09 ± 1.25 min,"Times of activities in 1 h after drug administration/10 min (Kunming mice [1]; 25 mg/kg, n = 10, 25 mg/kg): 321.4 ± 53.4 /10 min; Times of activities in 2 h after drug administration/10 min (Kunming mice [1]; 25 mg/kg, n = 10, 25 mg/kg): 310.8 ± 51.5 /10 min; Times of activities in 24 h after drug administration/10 min (Kunming mice [1]; 25 mg/kg, n = 10, 25 mg/kg): 300.2 ± 79.6 /10 min; Times of activities in 1 h after drug administration/10 min (Kunming mice [1]; 50 mg/kg, n = 10, 50 mg/kg): 289.9 ± 44.8 /10 min; Times of activities in 2 h after drug administration/10 min (Kunming mice [1]; 50 mg/kg, n = 10, 50 mg/kg): 258.2 ± 43.6 /10 min; Times of activities in 24 h after drug administration/10 min (Kunming mice [1]; 50 mg/kg, n = 10, 50 mg/kg): 311.5 ± 98.3 /10 min; Times of activities in 1 h after drug administration/10 min (Kunming mice [1]; 100 mg/kg, n = 10, 100 mg/kg): 288.3 ± 50.4 /10 min; Times of activities in 2 h after drug administration/10 min (Kunming mice [1]; 100 mg/kg, n = 10, 100 mg/kg): 235.8 ± 49.8 /10 min; Times of activities in 24 h after drug administration/10 min (Kunming mice [1]; 100 mg/kg, n = 10, 100 mg/kg): 322.6 ± 76.8 /10 min"

# From patent publication US9669003B2, “Use of flavone and flavanone derivatives in preparation of sedative and hypnotic drugs” (priority 2012, dated 2017)
